Source: patent publication US12275731B2, “Azaindole inhibitors of wild-type and mutant forms of LRRK2” (DANA-FARBER CANCER INSTITUTE, INC., priority 2018, dated 2025)

Legend:
Assay in all cases: KinomeScan profiling
Assay type in all cases: binding
[1] = molecular target: WNK3 (Homo sapiens, UniProt Q9BYP7); conditions: WNK3, 1 μM; read-out: % control
Procedure, shortened: (§1)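 Single-point competition binding screen: 1 μM, DMSO, 468 kinases. Results reported as % control from RLU, normalised to DMSO and positive-control wells. Activity threshold: <35% control.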

[2] = molecular target: T1, PRKD1 (Homo sapiens, UniProt Q15139); conditions: PRKD1, 1 μM; read-out: % control
T1 sequence (Q15139 1-912): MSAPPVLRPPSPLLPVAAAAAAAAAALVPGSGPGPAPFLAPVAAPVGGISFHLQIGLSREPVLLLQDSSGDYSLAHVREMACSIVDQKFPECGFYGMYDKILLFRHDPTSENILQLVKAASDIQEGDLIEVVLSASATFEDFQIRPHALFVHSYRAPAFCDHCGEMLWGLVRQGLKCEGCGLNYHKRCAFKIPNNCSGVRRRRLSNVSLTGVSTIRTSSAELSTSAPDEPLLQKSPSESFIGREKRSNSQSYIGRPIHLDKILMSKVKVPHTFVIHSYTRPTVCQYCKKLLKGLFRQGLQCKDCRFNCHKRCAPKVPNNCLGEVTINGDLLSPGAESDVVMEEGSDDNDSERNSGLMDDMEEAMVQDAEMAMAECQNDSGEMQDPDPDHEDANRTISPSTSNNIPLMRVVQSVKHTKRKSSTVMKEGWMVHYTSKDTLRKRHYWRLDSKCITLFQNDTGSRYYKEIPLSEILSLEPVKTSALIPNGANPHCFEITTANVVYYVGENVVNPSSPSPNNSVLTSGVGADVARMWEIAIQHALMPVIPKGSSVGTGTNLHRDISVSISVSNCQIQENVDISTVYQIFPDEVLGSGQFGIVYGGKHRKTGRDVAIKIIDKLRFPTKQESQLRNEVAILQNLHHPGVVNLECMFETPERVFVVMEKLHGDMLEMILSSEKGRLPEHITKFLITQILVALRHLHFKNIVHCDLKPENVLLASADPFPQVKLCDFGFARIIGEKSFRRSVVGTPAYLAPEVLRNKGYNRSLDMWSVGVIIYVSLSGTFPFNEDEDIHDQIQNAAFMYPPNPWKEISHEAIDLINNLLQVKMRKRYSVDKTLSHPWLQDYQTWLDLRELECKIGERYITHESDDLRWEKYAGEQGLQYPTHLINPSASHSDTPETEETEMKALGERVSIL
Procedure, shortened: as §1

[3] = molecular target: T2, KIT(D816H) (Homo sapiens, UniProt P10721, D816H); conditions: read-out: % control
T2 construct: purchased KinomeScan®
Procedure, shortened: as §1

[4] = molecular target: T3, FLT3(R834Q) (Homo sapiens, UniProt P36888, R834Q); conditions: read-out: % control
T3 sequence (P36888 27-993 R834Q): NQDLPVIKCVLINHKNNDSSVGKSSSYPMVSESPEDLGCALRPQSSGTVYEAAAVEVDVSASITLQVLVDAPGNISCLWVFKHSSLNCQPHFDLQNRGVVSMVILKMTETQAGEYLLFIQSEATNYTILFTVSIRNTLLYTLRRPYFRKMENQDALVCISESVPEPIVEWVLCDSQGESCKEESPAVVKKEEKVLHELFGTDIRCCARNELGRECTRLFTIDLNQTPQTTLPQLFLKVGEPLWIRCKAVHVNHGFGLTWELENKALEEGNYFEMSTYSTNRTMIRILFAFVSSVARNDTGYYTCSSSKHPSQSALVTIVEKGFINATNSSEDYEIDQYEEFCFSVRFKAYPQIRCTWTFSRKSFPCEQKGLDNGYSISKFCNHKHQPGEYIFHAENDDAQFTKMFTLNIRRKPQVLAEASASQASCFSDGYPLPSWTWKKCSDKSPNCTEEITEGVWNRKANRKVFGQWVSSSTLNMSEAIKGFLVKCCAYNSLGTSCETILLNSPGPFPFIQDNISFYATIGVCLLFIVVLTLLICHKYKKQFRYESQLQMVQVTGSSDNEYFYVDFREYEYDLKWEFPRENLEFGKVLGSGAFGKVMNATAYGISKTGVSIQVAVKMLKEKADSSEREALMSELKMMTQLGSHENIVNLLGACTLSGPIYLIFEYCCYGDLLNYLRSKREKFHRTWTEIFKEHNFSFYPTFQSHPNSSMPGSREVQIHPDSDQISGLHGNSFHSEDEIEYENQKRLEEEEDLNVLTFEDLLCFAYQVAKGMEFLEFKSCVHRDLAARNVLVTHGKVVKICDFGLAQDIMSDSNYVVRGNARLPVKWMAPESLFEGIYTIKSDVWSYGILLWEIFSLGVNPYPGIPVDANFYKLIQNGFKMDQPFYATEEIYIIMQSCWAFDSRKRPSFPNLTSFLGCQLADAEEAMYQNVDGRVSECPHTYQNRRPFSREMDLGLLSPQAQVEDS
Procedure, shortened: as §1

[5] = molecular target: T4, ARK5 (Homo sapiens, UniProt O60285); conditions: ARK5, 1 μM; read-out: % control
T4 construct: purchased KinomeScan®
T4 sequence (O60285 1-661): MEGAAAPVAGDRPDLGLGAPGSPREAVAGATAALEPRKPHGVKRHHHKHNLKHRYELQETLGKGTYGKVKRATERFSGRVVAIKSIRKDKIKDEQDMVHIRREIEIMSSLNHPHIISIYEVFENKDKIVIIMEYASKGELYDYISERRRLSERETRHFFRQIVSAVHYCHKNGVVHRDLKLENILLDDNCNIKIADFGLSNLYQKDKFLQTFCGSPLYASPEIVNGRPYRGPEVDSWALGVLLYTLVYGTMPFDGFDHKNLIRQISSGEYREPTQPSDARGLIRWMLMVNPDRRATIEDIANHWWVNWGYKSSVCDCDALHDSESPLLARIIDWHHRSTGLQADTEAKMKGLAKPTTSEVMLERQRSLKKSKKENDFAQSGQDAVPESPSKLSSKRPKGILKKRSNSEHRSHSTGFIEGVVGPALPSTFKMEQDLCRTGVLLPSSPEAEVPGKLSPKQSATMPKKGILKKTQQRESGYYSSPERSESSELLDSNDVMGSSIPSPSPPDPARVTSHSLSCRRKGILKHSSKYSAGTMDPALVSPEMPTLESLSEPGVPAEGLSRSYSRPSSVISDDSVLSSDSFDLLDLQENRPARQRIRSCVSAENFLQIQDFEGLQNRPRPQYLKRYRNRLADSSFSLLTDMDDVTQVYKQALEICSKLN
Procedure, shortened: as §1

T2 sequence (P10721 26-976 D816H): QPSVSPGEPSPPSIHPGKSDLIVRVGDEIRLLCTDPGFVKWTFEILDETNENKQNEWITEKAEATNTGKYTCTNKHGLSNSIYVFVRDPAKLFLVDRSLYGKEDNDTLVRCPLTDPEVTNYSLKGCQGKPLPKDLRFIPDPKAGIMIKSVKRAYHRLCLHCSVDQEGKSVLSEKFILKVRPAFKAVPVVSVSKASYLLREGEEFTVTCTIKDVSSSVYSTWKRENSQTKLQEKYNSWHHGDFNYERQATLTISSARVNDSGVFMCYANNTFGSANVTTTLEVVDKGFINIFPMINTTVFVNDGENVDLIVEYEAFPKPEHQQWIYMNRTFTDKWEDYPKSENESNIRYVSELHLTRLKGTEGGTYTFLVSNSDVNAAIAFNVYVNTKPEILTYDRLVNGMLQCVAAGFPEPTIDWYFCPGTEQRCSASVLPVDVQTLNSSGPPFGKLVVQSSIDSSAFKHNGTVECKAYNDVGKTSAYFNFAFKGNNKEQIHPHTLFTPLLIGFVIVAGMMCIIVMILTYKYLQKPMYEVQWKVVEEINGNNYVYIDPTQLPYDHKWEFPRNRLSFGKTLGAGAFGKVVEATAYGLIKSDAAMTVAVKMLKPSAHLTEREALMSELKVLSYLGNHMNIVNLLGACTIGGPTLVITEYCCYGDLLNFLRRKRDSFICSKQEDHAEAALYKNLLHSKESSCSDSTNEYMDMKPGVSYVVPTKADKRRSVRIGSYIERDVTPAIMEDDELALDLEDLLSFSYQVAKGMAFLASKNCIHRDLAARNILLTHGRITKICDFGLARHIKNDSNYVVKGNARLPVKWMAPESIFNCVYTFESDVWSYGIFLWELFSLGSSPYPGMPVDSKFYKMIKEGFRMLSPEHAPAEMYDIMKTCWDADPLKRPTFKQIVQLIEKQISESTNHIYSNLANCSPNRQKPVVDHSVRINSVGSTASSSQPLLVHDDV
Sequence of WNK3 (Q9BYP7 whole entry): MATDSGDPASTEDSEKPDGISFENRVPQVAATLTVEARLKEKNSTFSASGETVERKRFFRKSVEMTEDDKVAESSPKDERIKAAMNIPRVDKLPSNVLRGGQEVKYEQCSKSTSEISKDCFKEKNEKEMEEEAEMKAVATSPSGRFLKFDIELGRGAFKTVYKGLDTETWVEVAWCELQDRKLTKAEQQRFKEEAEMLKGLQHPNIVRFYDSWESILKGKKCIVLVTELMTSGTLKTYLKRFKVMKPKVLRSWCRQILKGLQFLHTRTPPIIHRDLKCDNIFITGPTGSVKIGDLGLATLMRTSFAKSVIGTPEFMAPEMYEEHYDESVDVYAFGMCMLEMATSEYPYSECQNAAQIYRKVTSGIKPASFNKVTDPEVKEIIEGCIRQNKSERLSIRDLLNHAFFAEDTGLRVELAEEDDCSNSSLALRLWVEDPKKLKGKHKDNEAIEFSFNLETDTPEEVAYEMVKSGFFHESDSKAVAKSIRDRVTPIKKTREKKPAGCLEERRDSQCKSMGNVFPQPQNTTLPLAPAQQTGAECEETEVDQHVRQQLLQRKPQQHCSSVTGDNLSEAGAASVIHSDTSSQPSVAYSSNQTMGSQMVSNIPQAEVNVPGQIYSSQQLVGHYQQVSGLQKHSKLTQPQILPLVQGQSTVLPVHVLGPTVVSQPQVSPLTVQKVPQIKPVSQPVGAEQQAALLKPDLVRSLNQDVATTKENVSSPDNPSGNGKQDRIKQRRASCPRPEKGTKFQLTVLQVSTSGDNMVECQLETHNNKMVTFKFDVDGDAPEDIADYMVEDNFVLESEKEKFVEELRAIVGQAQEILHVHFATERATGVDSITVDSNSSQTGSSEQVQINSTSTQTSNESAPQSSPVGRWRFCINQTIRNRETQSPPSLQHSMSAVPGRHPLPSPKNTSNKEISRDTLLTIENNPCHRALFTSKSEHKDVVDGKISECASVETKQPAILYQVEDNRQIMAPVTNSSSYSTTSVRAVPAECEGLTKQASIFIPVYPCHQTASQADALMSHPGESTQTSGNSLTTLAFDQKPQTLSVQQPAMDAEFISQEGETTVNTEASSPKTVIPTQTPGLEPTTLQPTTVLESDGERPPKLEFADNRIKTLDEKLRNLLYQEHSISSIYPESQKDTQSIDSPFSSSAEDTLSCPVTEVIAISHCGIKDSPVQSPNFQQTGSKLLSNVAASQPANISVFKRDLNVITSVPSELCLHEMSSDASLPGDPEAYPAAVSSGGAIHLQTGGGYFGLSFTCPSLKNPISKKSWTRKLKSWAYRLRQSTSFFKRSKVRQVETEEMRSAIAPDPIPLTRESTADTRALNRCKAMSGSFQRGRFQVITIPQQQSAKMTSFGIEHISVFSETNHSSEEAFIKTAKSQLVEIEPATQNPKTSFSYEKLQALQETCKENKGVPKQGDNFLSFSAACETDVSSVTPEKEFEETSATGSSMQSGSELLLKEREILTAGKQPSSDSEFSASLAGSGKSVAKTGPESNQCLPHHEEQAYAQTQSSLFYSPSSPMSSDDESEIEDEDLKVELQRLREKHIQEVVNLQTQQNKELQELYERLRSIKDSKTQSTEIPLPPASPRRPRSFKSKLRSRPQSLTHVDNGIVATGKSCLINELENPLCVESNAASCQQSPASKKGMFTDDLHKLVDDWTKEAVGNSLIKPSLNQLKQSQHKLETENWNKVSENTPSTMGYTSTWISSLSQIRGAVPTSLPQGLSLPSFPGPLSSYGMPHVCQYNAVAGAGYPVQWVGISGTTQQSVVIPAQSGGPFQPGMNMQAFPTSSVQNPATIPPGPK

| SMILES | remaining binding at 1 µM [1] | remaining binding at 1 µM [2] | remaining binding at 1 µM [3] | remaining binding at 1 µM [4] | remaining binding at 1 µM [5] |
| --- | --- | --- | --- | --- | --- |
| CNc1c(-c2cnn([C@H]3CCN(C(C)=O)C[C@@H]3F)c2)cnc2[nH]cc(Cl)c12 [Compound 77, 1-((3S,4S)-4-(4-(3-chloro-4-(methylamino)-1H-pyrrolo[2,3-b]pyridin-5-yl)-1H-pyrazol-1-yl)-3-fluoropiperidin-1-yl)ethan-1-one] | 86% | 58% | 51% | 45% | 86% |
| CNc1c(-c2ccc(C(=O)N3CCC(N4CCOCC4)CC3)cc2)cnc2[nH]cc(Cl)c12 [Compound 96, (4-(3-chloro-4-(methylamino)-1H-pyrrolo[2,3-b]pyridin-5-yl)phenyl)(4-morpholinopiperidin-1-yl)methanone] | 73% | 19% | 75% | 52% | 64% |
| O=C(c1ccc(-c2cnc3[nH]cc(Cl)c3c2NC2CCCC2)cc1)N1CCC(N2CCOCC2)CC1 [Compound 101, (4-(3-chloro-4-(cyclopentylamino)-1H-pyrrolo[2,3-b]pyridin-5-yl)phenyl)(4-morpholinopiperidin-1-yl)methanone] | 92% | 48% | 92% | 75% | 67% |
